Earlier results on one compound are cited in patent US6811791B2, “Method and concentrated composition for insect and animal control” (priority 2001, dated 2004).

For this data set the following is noted: classified by the EPA.

Regarding `CNC(=O)CSP(=S)(OC)OC` [Dimethoate, dimethoate], the EPA carcinogen classification result was “group 3 carcinogen”.
